PubChem BioAssay AID1919004 (Molecular Pharmacology Branch, DTP, NCI, 2023)
“And” between values parts separate entries of the source, which are not always exact repeats. Equal entries are not always repeated.

Test system: 883617-216-R-J1-PDC complex spheroids, growth, % test/control
Test: Anticancer human tumor 883617-216-R-J1-PDC patient-derived bladder carcinoma cell line growth inhibition [AhR]
Conditions: for viability, T/C: stronger effect = lower value; active = viability on the fitted dose curve at most 10% of control; inactive = the rest
Summary of the method: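 Agents were dosed in half-log steps down from roughly clinical Cmax, or from 10 microM where Cmax was unknown, alone and with AhR antagonists. Read-out: percent test/control growth of tumor spheroids containing HUVEC and MSC stromal cells.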

[1] = curve of first compound, second compound 0.1 µM
[2] = curve of first compound, second compound 0.316 µM
[3] = curve of first compound, second compound 1 µM
[4] = curve of first compound, second compound 3.16 µM
[5] = curve of first compound, second compound 10 µM
[6] = second compound 0.1 µM, first compound 0.0316 µM
[7] = second compound 0.1 µM, first compound 0.1 µM
[8] = second compound 0.1 µM, first compound 0.316 µM
[9] = second compound 0.1 µM, first compound 1 µM
[10] = second compound 0.1 µM, first compound 3.16 µM
[11] = second compound 0.1 µM, first compound 10 µM
[12] = second compound 0.316 µM, first compound 0.0316 µM
[13] = second compound 0.316 µM, first compound 0.1 µM
[14] = second compound 0.316 µM, first compound 0.316 µM
[15] = second compound 0.316 µM, first compound 1 µM
[16] = second compound 0.316 µM, first compound 3.16 µM
[17] = second compound 0.316 µM, first compound 10 µM
[18] = second compound 1 µM, first compound 0.0316 µM
[19] = second compound 1 µM, first compound 0.1 µM
[20] = second compound 1 µM, first compound 0.316 µM
[21] = second compound 1 µM, first compound 1 µM
[22] = second compound 1 µM, first compound 3.16 µM
[23] = second compound 1 µM, first compound 10 µM
[24] = second compound 3.16 µM, first compound 0.0316 µM
[25] = second compound 3.16 µM, first compound 0.1 µM
[26] = second compound 3.16 µM, first compound 0.316 µM
[27] = second compound 3.16 µM, first compound 1 µM
[28] = second compound 3.16 µM, first compound 3.16 µM
[29] = second compound 3.16 µM, first compound 10 µM
[30] = second compound 10 µM, first compound 0.0316 µM
[31] = second compound 10 µM, first compound 0.1 µM
[32] = second compound 10 µM, first compound 0.316 µM
[33] = second compound 10 µM, first compound 1 µM
[34] = second compound 10 µM, first compound 3.16 µM
[35] = second compound 10 µM, first compound 10 µM
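Note: exposure lasted 7 days after dosing on day 3 of spheroid growth.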

O=C(C=Cn1cnc(-c2cc(C(F)(F)F)cc(C(F)(F)F)c2)n1)NNc1cnccn1
inactive: viability, T/C (compound 0.00949 µM) 89.8% and 81.2% and 74.5% | viability, T/C (compound 0.03 µM) 88.8% and 78.5% and 89% | viability, T/C (compound 0.0949 µM) 67.4% and 63% and 65.5% | viability, T/C (compound 0.3 µM) 56.7% and 51.7% and 68.9% | viability, T/C (compound 0.949 µM) 45.9% and 42.6% and 45.6% | viability, T/C (compound 3 µM) 28.2% and 30.1% and 35.2%
552 nM and 386 nM and 803 nM: IC50 (curve of compound)

COc1cccc2c1C(=O)c1c(O)c3c(c(O)c1C2=O)CC(O)(C(=O)CO)CC3OC1CC(N)C(O)C(C)O1 (stereo unspecified) + CC(CO)NC(=O)c1cc(-c2ccc(Cl)cc2)nn(-c2cnn(C)c2)c1=O
230 nM: IC50 [4]
501 nM: IC50 [3]
active: viability, T/C [9] 4.71% | viability, T/C [10] 2.59% | viability, T/C [11] 1.67% | viability, T/C [15] 4.94% | viability, T/C [16] 5.79% | viability, T/C [17] 4.67% | viability, T/C [21] 1.75% | viability, T/C [22] 2.44% | viability, T/C [23] 1.47% | viability, T/C [27] 3.13% | viability, T/C [28] 3.56% | viability, T/C [29] 0.65% | viability, T/C [33] 1.76% | viability, T/C [34] 1.75% | viability, T/C [35] 1.1%
inactive: viability, T/C [6] 115% | viability, T/C [7] 116% | viability, T/C [8] 39.2% | viability, T/C [12] 90.5% | viability, T/C [13] 94.2% | viability, T/C [14] 70.9% | viability, T/C [18] 95.2% | viability, T/C [19] 93.9% | viability, T/C [20] 82.1% | viability, T/C [24] 91.5% | viability, T/C [25] 107% | viability, T/C [26] 31.2% | viability, T/C [30] 113% | viability, T/C [31] 65.8% | viability, T/C [32] 32.6%
269 nM: IC50 [1]
167 nM: IC50 [5]
456 nM: IC50 [2]

O=C(C=Cc1cccc(S(=O)(=O)Nc2ccccc2)c1)NO + Cc1ccccc1N=Nc1ccc(NC(=O)c2ccnn2C)c(C)c1
inactive: viability, T/C [6] 86.6% | viability, T/C [7] 80% | viability, T/C [8] 77.1% | viability, T/C [9] 56.6% | viability, T/C [10] 36.6% | viability, T/C [12] 89.2% | viability, T/C [13] 88.1% | viability, T/C [14] 77.6% | viability, T/C [15] 68% | viability, T/C [16] 32% | viability, T/C [18] 76.7% | viability, T/C [19] 96.8% | viability, T/C [20] 69.1% | viability, T/C [21] 56.8% | viability, T/C [22] 31.2% | viability, T/C [24] 70.9% | viability, T/C [25] 87.2% | viability, T/C [26] 73.3% | viability, T/C [27] 62.9% | viability, T/C [28] 28.2% | viability, T/C [30] 74.6% | viability, T/C [31] 76.3% | viability, T/C [32] 68.1% | viability, T/C [33] 63.1% | viability, T/C [34] 32%
1730 nM: IC50 [2]
1530 nM: IC50 [4]
1570 nM: IC50 [1]
1580 nM: IC50 [5]
active: viability, T/C [11] 2.17% | viability, T/C [17] 2.44% | viability, T/C [23] 1.92% | viability, T/C [29] 1.87% | viability, T/C [35] 2.57%
1370 nM: IC50 [3]

O=C(C=Cc1cccc(S(=O)(=O)Nc2ccccc2)c1)NO + Cc1cncc(-c2nc(NCCc3c[nH]c4ccccc34)c3ncn(C(C)C)c3n2)c1
< 31.6 nM: IC50 [5]
1960 nM: IC50 [3]
active: viability, T/C [11] 3.56% | viability, T/C [17] 4.17% | viability, T/C [23] 2.44% | viability, T/C [29] 2.66% | viability, T/C [35] 1.42%
1660 nM: IC50 [2]
inactive: viability, T/C [6] 92.5% | viability, T/C [7] 93.9% | viability, T/C [8] 83% | viability, T/C [9] 60.6% | viability, T/C [10] 37% | viability, T/C [12] 88.5% | viability, T/C [13] 86.4% | viability, T/C [14] 84.4% | viability, T/C [15] 60.3% | viability, T/C [16] 34.5% | viability, T/C [18] 97.1% | viability, T/C [19] 101% | viability, T/C [20] 96.4% | viability, T/C [21] 63.5% | viability, T/C [22] 39.1% | viability, T/C [24] 123% | viability, T/C [25] 114% | viability, T/C [26] 94.8% | viability, T/C [27] 69.8% | viability, T/C [28] 34.6% | viability, T/C [30] 52.4% | viability, T/C [31] 43.2% | viability, T/C [32] 34.7% | viability, T/C [33] 42.7% | viability, T/C [34] 22%
1900 nM: IC50 [4]
1740 nM: IC50 [1]

Nc1ccn(C2OC(CO)C(O)C2(F)F)c(=O)n1 (stereo unspecified) + Cc1cncc(-c2nc(NCCc3c[nH]c4ccccc34)c3ncn(C(C)C)c3n2)c1
< 31.6 nM: IC50 [1] | IC50 [2] | IC50 [3] | IC50 [5]
inactive: viability, T/C [6] 32.6% | viability, T/C [7] 39.7% | viability, T/C [8] 43.1% | viability, T/C [9] 41.3% | viability, T/C [10] 44% | viability, T/C [11] 38.9% | viability, T/C [12] 34.5% | viability, T/C [13] 38.8% | viability, T/C [14] 44.9% | viability, T/C [15] 38.4% | viability, T/C [16] 39.5% | viability, T/C [17] 39.4% | viability, T/C [18] 46.1% | viability, T/C [19] 33.8% | viability, T/C [20] 39.3% | viability, T/C [21] 37.5% | viability, T/C [22] 41.9% | viability, T/C [23] 43.4% | viability, T/C [24] 71.3% | viability, T/C [25] 39.3% | viability, T/C [26] 40.6% | viability, T/C [27] 41.2% | viability, T/C [28] 43.5% | viability, T/C [29] 39.1% | viability, T/C [30] 33.1% | viability, T/C [31] 16.4% | viability, T/C [32] 13.5% | viability, T/C [33] 10.9% | viability, T/C [34] 15.8% | viability, T/C [35] 18%
70.8 nM: IC50 [4]

Nc1ncn(C2CC(O)C(CO)S2)c(=O)n1 (stereo unspecified) + CC(CO)NC(=O)c1cc(-c2ccc(Cl)cc2)nn(-c2cnn(C)c2)c1=O
> 300 nM: IC50 [1] | IC50 [3] | IC50 [4] | IC50 [5]
288 nM: IC50 [2]
inactive: viability, T/C (second compound 0.1 µM, first compound 0.000949 µM) 65.6% | viability, T/C (second compound 0.1 µM, first compound 0.003 µM) 57.9% | viability, T/C (second compound 0.1 µM, first compound 0.00949 µM) 65% | viability, T/C (second compound 0.1 µM, first compound 0.03 µM) 76.6% | viability, T/C (second compound 0.1 µM, first compound 0.0949 µM) 80.2% | viability, T/C (second compound 0.1 µM, first compound 0.3 µM) 85.5% | viability, T/C (second compound 0.316 µM, first compound 0.000949 µM) 72.1% | viability, T/C (second compound 0.316 µM, first compound 0.003 µM) 112% | viability, T/C (second compound 0.316 µM, first compound 0.00949 µM) 70.8% | viability, T/C (second compound 0.316 µM, first compound 0.03 µM) 104% | viability, T/C (second compound 0.316 µM, first compound 0.0949 µM) 65.7% | viability, T/C (second compound 0.316 µM, first compound 0.3 µM) 49.2% | viability, T/C (second compound 1 µM, first compound 0.000949 µM) 69.9% | viability, T/C (second compound 1 µM, first compound 0.003 µM) 66.6% | viability, T/C (second compound 1 µM, first compound 0.00949 µM) 78.5% | viability, T/C (second compound 1 µM, first compound 0.03 µM) 118% | viability, T/C (second compound 1 µM, first compound 0.0949 µM) 43.9% | viability, T/C (second compound 1 µM, first compound 0.3 µM) 89.8% | viability, T/C (second compound 3.16 µM, first compound 0.000949 µM) 71% | viability, T/C (second compound 3.16 µM, first compound 0.003 µM) 80.3% | viability, T/C (second compound 3.16 µM, first compound 0.00949 µM) 75.6% | viability, T/C (second compound 3.16 µM, first compound 0.03 µM) 76% | viability, T/C (second compound 3.16 µM, first compound 0.0949 µM) 72.2% | viability, T/C (second compound 3.16 µM, first compound 0.3 µM) 92.9% | viability, T/C (second compound 10 µM, first compound 0.000949 µM) 67.4% | viability, T/C (second compound 10 µM, first compound 0.003 µM) 74.7% | viability, T/C (second compound 10 µM, first compound 0.00949 µM) 76.2% | viability, T/C (second compound 10 µM, first compound 0.03 µM) 71.9% | viability, T/C (second compound 10 µM, first compound 0.0949 µM) 102% | viability, T/C (second compound 10 µM, first compound 0.3 µM) 111%

Cn1ncnc1C1c2n[nH]c(=O)c3cc(F)cc(c23)NC1c1ccc(F)cc1 (stereo unspecified)
> 100 nM: IC50 (curve of compound)
inactive: viability, T/C (compound 0.000316 µM) 105% (2×) and 85.5% | viability, T/C (compound 0.001 µM) 111% and 107% and 106% | viability, T/C (compound 0.00316 µM) 103% and 101% and 76.3% | viability, T/C (compound 0.01 µM) 97.2% and 91.8% and 87.1% | viability, T/C (compound 0.0316 µM) 82.2% and 83.4% and 63.1% | viability, T/C (compound 0.1 µM) 75.4% and 77% and 89.1%

Nc1ccccc1NC(=O)c1ccc(CNC(=O)OCc2cccnc2)cc1
0.83% and 1.59% and 18.8%: viability, T/C (compound 10 µM)
1150 nM and 1390 nM and 4400 nM: IC50 (curve of compound)
inactive: viability, T/C (compound 0.0316 µM) 96.9% and 100% and 89.9% | viability, T/C (compound 0.1 µM) 102% and 111% and 88.5% | viability, T/C (compound 0.316 µM) 86.1% and 82.7% and 81.7% | viability, T/C (compound 1 µM) 52.8% and 62.3% and 78.8% | viability, T/C (compound 3.16 µM) 20% and 24.2% and 63.7%
